biological target: T1, human M4 muscarinic acetylcholine receptor (Homo sapiens, UniProt P08173); test: human FLIPR-based M4 PAM assay, CHO-K1 cells stably transfected with human M4 receptor and chimeric G-protein Gαqi5; format: cell-based; conditions: inflection point (IP) of dose response curve; acetylcholine added at 20% of maximum response; CHO-K1 human M4/Gαqi5, FLIPR Tetra
T1 construct: expressed in transfected cells; host or cells: CHO-K1
T1 sequence (P08173 1-479): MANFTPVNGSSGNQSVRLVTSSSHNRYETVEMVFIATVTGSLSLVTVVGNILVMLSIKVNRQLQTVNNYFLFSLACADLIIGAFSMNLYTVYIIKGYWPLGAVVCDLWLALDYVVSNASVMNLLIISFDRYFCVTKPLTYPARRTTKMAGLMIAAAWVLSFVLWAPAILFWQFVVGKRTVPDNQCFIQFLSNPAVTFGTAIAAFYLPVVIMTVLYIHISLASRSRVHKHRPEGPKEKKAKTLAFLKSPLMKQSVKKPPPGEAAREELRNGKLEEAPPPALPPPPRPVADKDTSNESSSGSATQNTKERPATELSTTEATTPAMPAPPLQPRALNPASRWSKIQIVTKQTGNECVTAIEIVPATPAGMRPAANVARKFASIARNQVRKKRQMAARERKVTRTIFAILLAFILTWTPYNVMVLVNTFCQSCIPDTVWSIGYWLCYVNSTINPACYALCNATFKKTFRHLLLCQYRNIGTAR
How it was run: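 CHO-K1 cells were loaded with calcium dye at 37 °C for ~1 h. Fluorescence (ex 470–495/em 515–575 nm) was read for 4 min after test compound at increasing concentrations, then 3.5 min after acetylcholine at an EC20; sometimes a third addition at EC70 followed. The value is the inflection point of a 4-parameter logistic fit.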

| EC50 [µM] | Structure (SMILES) |
| --- | --- |
| 0.051 | Cc1c(Cl)nc(CO)nc1N1CCC(Oc2cccc(C#N)c2)CC1 [Example 51, 3-((1-(6-chloro-2-(hydroxymethyl)-5-methylpyrimidin-4-yl)piperidin-4-yl)oxy)benzonitrile] |
| 1.44 | COc1ccc(OC2CCN(c3ncnc(-c4cccnc4)c3C)CC2)cn1 [Example 251, 4-(4-((6-methoxypyridin-3-yl)oxy)piperidin-1-yl)-5-methyl-6-(pyridin-3-yl)pyrimidine] |
| 0.939 | COC(=O)c1cc(C(=O)OC)c(N2CCC(Oc3ccc(OC)nc3)CC2)nc1C#N [Example 46, dimethyl 2-cyano-6-(4-((6-methoxypyridin-3-yl)oxy)piperidin-1-yl)pyridine-3,5-dicarboxylate] |
| 0.871 | COc1ccc(OC2CCN(c3nnc(C(=O)NCc4cc(F)c(OC)c(F)c4)cc3C)CC2)cn1 [Example 181, N-(3,5-difluoro-4-methoxybenzyl)-6-{4-[(6-methoxypyridin-3-yl)oxy]piperidin-1-yl}-5-methylpyridazine-3-carboxamide] |
| 0.209 | COc1ccc(OC2CCN(c3nnc(C(=O)NC45CC(C4)C5)cc3C)CC2)cn1 [Example 147, N-bicyclo[1.1.1]pent-1-yl-6-{4-[(6-methoxypyridin-3-yl)oxy]piperidin-1-yl}-5-methylpyridazine-3-carboxamide] |
| 0.471 | COc1ccc(OC2CCN(c3nnc(C(=O)NCc4ccc(C#N)cc4)cc3C)CC2)cn1 [Example 171, N-(4-cyanobenzyl)-6-{4-[(6-methoxypyridin-3-yl)oxy]piperidin-1-yl}-5-methylpyridazine-3-carboxamide] |
| 0.221 | Cc1nc2ccc(OC3CCN(c4nnc(C(=O)NC5C6CC5C6)cc4C)CC3)cc2o1 (stereo not shown) [Example 148, N-bicyclo[1.1.1]pent-2-yl-5-methyl-6-{4-[(2-methyl-1,3-benzoxazol-6-yl)oxy]piperidin-1-yl}pyridazine-3-carboxamide] |
| 0.101 | Cc1cc(C(=O)NC2C3CC2C3)nnc1N1CCC(Oc2ccc3[nH]ncc3c2)CC1 (stereo not shown) [Example 124, N-bicyclo[1.1.1]pent-2-yl-6-[4-(1H-indazol-5-yloxy)piperidin-1-yl]-5-methylpyridazine-3-carboxamide] |
| 0.29 | COC(=O)c1cc(C)c(N2CC[C@H](Oc3ccc(OC)nc3)[C@H](F)C2)nn1 [Example 40, methyl 6-((3R,4S)-3-fluoro-4-((6-methoxypyridin-3-yl)oxy)piperidin-1-yl)-5-methylpyridazine-3-carboxylate] |
| 1.83 | COc1ccc(OC2CCN(c3nc(SC)nc(Cl)c3C)CC2)cc1 [Example 16, 4-chloro-6-(4-(4-methoxyphenoxy)piperidin-1-yl)-5-methyl-2-(methylthio)pyrimidine] |
| 0.633 | COc1ccc(OC2CCN(c3ncnc(-c4ccc(F)nc4)c3C)CC2)cn1 [Example 246, 4-(6-fluoropyridin-3-yl)-6-(4-((6-methoxypyridin-3-yl)oxy)piperidin-1-yl)-5-methylpyrimidine] |
| 0.533 | Cc1c(Cl)nc(CO)nc1N1CCC(Oc2ccc3ncnn3c2)CC1 [Example 4, (4-(4-([1,2,4]triazolo[1,5-a]pyridin-6-yloxy)piperidin-1-yl)-6-chloro-5-methylpyrimidin-2-yl)methanol] |
| 0.766 | Cc1c(Cl)nc(CO)nc1N1CCC(Oc2ccc3nonc3c2)CC1 [Example 5, (4-(4-(benzo[c][1,2,5]oxadiazol-5-yloxy)piperidin-1-yl)-6-chloro-5-methylpyrimidin-2-yl)methanol] |
| 0.121 | CNC(=O)c1cc(C)c(N2CCC(Oc3ccc(OC)nc3)CC2)nn1 [Example 129, 6-{4-[(6-methoxypyridin-3-yl)oxy]piperidin-1-yl}-N,5-dimethylpyridazine-3-carboxamide] |
| 0.044 | COc1ccc(OC2CCN(c3nnc(C(=O)NCc4nncs4)cc3C)CC2)cn1 [Example 113, 6-{4-[(6-methoxypyridn-3-yl)oxy]piperidin-1-yl}-5-methyl-N-(1,3,4-thiadiazol-2-ylmethyl)pyridazine-3-carboxamide] |
| 0.025 | COc1ccc(OC2CCN(c3nc(CO)nc(Cl)c3C)CC2)cc1 [Example 47, (4-chloro-6-(4-(4-methoxyphenoxy)piperidin-1-yl)-5-methypyrimidin-2-yl)methanol] |
| 3.06 | COc1ccc(OC2CCN(c3ncnc(N4CC5CC4CO5)c3C)CC2)cn1 (stereo not shown) [Example 238, 5-(6-(4-((6-methoxypyridin-3-yl)oxy)piperidin-1-yl)-5-methylpyrimidin-4-yl)-2-oxa-5-azabicyclo[2.2.1]heptane] |

| EC50 [µM] | Structure (SMILES) |
| --- | --- |
| 0.094 | COc1ccc(OC2CCN(c3nc(C)nc(Cl)c3C)CC2)cc1 [Example 62, 4-chloro-6-(4-(4-methoxyphenoxy)piperidin-1-yl)-2,5-dimethylpyrimidine] |
| 1.53 | COc1ncc(C#N)c(N2CCC(Oc3cccc(C#N)c3)CC2)n1 [Example 88, 4-(4-(3-cyanophenoxy)piperidin-1-yl)-2-methoxypyrimidine-5-carbonitrile] |
| 3.06 | CSc1ncc(C)c(N2CCC(Oc3cccnc3)CC2)n1 [Example 20, 5-methyl-2-(methylthio)-4-(4-(pyridin-3-yloxy)piperidin-1-yl)pyrimidine] |
| 4.85 | COc1ccc(OC2CCN(c3nc(C(=O)N[C@H]4CCCc5ccccc54)nc(Cl)c3C)CC2)cn1 [Example 224, (S)-4-chloro-6-(4-((6-methoxypyridin-3-yl)oxy)piperidin-1-yl)-5-methyl-N-(1,2,3,4-tetrahydronaphthalen-1-yl)pyrimidine-2-carboxamide] |
| 0.191 | COc1ccc(OC2CCN(c3nc(C)nc(Cl)c3C)CC2)cn1 [Example 1, 4-Chloro-6-(4-((6-methoxypyridin-3-yl)oxy)piperidin-1-yl)-2,5-dimethylpyrimidine] |
| 0.446 | Cc1nc2cc(OC3CCN(c4nc(CO)nc(Cl)c4C)CC3)ccc2s1 [Example 44, 4(4-chloro-5-methyl-6-(4-((2-methylbenzo[d]thiazol-5-yl)oxy)piperidin-1-yl)pyrimidin-2-yl)methanol] |
| 0.252 | Cc1c(Cl)nc(CO)nc1N1CCC(Oc2ccc3c(c2)C(=O)CCC3)CC1 [Example 38, 7-((1-(6-chloro-2-(hydroxymethyl)-5-methylpyrimidin-4-yl)piperidin-4-yl)oxy)-3,4-dihydronaphthalen-1(2H)-one] |
| 0.378 | COC(=O)c1cc(C)c(N2CCC(Oc3ccc(OC)nc3)CC2)nc1F [Example 102, Methyl 2-fluoro-6-(4-((6-methoxypyridin-3-yl)oxy)piperidin-1-yl)-5-methylnicotinate] |
| 0.459 | COc1ccc(OC2CCN(c3nnc(C(=O)NC4CCCC4)cc3C)CC2)cn1 [Example 169, N-cyclopentyl-6-{4-[(6-methoxypyridin-3-yl)oxy]piperidin-1-yl}-5-methylpyridazine-3-carboxamide] |
| 3.41 | COc1ccc(OC2CCN(c3nc(C(=O)N[C@@H]4CCCc5ccccc54)nc(Cl)c3C)CC2)cn1 [Example 223, (R)-4-chloro-6-(4-((6-methoxypyridin-3-yl)oxy)piperidin-1-yl)-5-methyl-N-(1,2,3,4-tetrahydronaphthalen-1-yl)pyrimidine-2-carboxamide] |
| 2.47 | Cc1c(-c2ccc(F)cc2)ncnc1N1CCC(Oc2cccc(C#N)c2)CC1 [Example 254, 3-((1-(6-(4-fluorophenyl)-5-methylpyrimidin-4-yl)piperidin-4-yl)oxy)benzonitrile] |
| 0.265 | COc1ccc(OC2CCN(c3nnc(C(=O)NCc4cc(C)n(C)n4)cc3C)CC2)cn1 [Example 155, N-[(1,5-dimethyl-1H-pyrazol-3-yl)methyl]-6-{4-[(6-methoxypyridin-3-yl)oxy]piperidin-1-yl}-5-methylpyridazine-3-carboxamide] |
| 0.705 | COc1ccc(OC2CCN(c3nc(C(=O)NC(C)(C)C)nc(Cl)c3C)CC2)cn1 [Example 212] |
| 0.222 | Cc1c(Cl)nc(CO)nc1N1CCC(Oc2ccc3c(c2)CCCC3=O)CC1 [Example 36, 6-((1-(6-chloro-2-(hydroxymethyl)-5-methylpyrimidin-4-yl)piperidin-4-yl)oxy)-3,4-dihydronaphthalen-1(2H)-one] |
| 1.83 | COc1ccc(OC2CCN(c3nc(C(=O)NC4CCc5ccccc5C4)nc(Cl)c3C)CC2)cn1 (stereo not shown) [Example 221, 4-chloro-6-(4-((6-methoxypyridin-3-yl)oxy)piperidin-1-yl)-5-methyl-N-(1,2,3,4-tetrahydronaphthalen-2-yl)pyrimidine-2-carboxamide] |
| 0.378 | Cc1c(Cl)nc(CO)nc1N1CC[C@@H](Oc2ccc3c(c2)C(=O)N(C)C3)[C@@H](F)C1 [Example 43, 6-(((3S,4R)-1-(6-chloro-2-(hydroxymethyl)-5-methylpyrimidin-4-yl)-3-fluoropiperidin-4-yl)oxy)-2-methylisoindolin-1-one] |
| 0.729 | COc1ccc(OC2CCN(c3nc(C(=O)NC(C)C)nc(Cl)c3C)CC2)cn1 [Example 213, 4-chloro-N-isopropyl-6-(4-((6-methoxypyridin-3-yl)oxy)piperidin-1-yl)-5-methylpyrimidine-2-carboxamide] |

Source: US11319298B2 (Merck Sharp & Dohme Corp., priority 2016, dated 2022)
